From US5372940A, “D-pantolactone hydrolase and process for the preparation thereof” (Fuji Yakuhin Kogyo Kabushiki Kaisha, priority 1990, dated 1994)

Test system: D-pantolactone hydrolase purified from Fusarium oxysporum (IFO 5942)
Assay: Substrate specificity (Km) and inhibition of purified D-pantolactone hydrolase
Assay type: biochemical
Details: for Km: purified enzyme, the compound is the substrate, read-out: Km (Michaelis constant)
Method: Fusarium oxysporum (IFO 5942) was inoculated into each of thirty 2l shake flasks each containing 500 ml of culture medium containing 5% sucrose, 0.4% sodium nitrate, 0.2% dipotassium monohydrogenphosphate, 0.05% magnesium sulfate, 0.05% potassium chloride, 0.001% ferric sulfate and 0.002% zinc sulfate (pH 6.0), and subjected to shaking culture at 28° C. for 7 days. The combined culture broths were centrifuged to give 800 g of wet mass of cells. The cells were triturated by means of a DYNO®-MILL with 2.5 l of 0.1 mM dithiothreitol-containing 20 mM Tris-HCl buffer (pH 7.4), and the mixture was centrifuged to give 2.3 l of cell-free extract. […] Furthermore, 572 g of potassium chloride were added to, and dissolved in, this cell-free extract and the mixture was loaded on an Octyl sepharose CL4B column (3×28 cm) and eluted with 3M potassium chloride. 2.4 l of eluted active fractions were dialyzed against 0.1 mM dithiothreitol-containing 20 mM Tris-HCl buffer (pH 7.4). The resultant 2.9 l of enzyme solution were loaded on a DEAE Sephacel column (5.5×34 cm) and eluted with a linear gradient of 0 to 0.5M potassium chloride. 255 ml of eluted active fractions were loaded on a hydroxyapatite column (5×10 cm) and eluted with a linear gradient of 0 to 0.88M potassium phosphate buffer (pH 7.0). 425 ml of eluted active fractions were subjected to ultrafiltration using an Amicon YM 10, and 115 ml of the resultant enzyme concentrate were dialyzed against 0.1 mM dithiothreitol-containing 20 mM Tris-HCl buffer (pH 7.4). 190 ml of the enzyme solution were subjected to ultrafiltration using an Amicon YM 30 and 14.5 ml of the resultant enzyme solution was loaded on a sephacryl S-300 column (2.5×95 cm) and eluted with 0.2M potassium chloride. 44.5 ml of eluted active fractions were dialyzed against 0.1 mM dithiothreitol-containing 20 mM Tris-HCl buffer (pH 7.4), then loaded on a Q sepharose Fast Flow column (1.8×3 cm) and eluted with a linear gradient of 0 to 1M potassium chloride. 7 ml of eluted active fractions were dialyzed against 0.1 mM dithiothreitol-containing 20 mM Tris-HCl buffer (pH 7.4) to obtain 6.8 ml of purified enzyme solution.
In determining enzyme activity, the enzyme activity which hydrolyzes 1 μmol of D-pantolactone in one minute under the conditions specified below was taken as one unit (U).
50 μl of enzyme solution were added to 200 μl of 10% D-pantolactone solution in 0.5M PIPES buffer (pH 7.0). After reaction at 30° C. for 120 minutes, 250 μl of 2 mM EDTA solution in methanol were added to stop the reaction. The resultant reaction mixture was subjected to HPLC (Nucleosil 5C18 4.6×150 mm; eluent 10% methanol; rate of flow 1 ml/min; detection wavelength 230 nm) to determine the % hydrolysis. For example, where the % hydrolysis is 1%, the enzyme activity/ml of enzyme solution corresponds to 1.6×10^-2 U/ml.
Values in parentheses are those for the activity of the respective metal ions at 2.5 mM concentration as measured with the activity value in the case of no addition of metal ions taken as 100.

Compound	Km [mM]	Inhibition of enzyme activity (5 mM EDTA)
O=C1O[C@@H]([C@H](O)CO)[C@H](O)[C@H]1O [D-galactonolactone]	3.6	
O=C1O[C@@H]([C@H](O)CO)[C@@H](O)[C@H]1O [D-gulonolactone]	29	
CC1(C)COC(=O)[C@@H]1O [D-pantolactone]	82	
O=C(O)CN(CCN(CC(=O)O)CC(=O)O)CC(=O)O [EDTA, reference compound]		inhibited completely
O=C1O[C@@H]([C@@H](O)CO)[C@@H](O)[C@H]1O [L-mannonolactone]	23	
